Test results reported in PubChem BioAssay (NCI).
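96-well plates; 48 h exposure; 5 concentrations. Endpoints by linear interpolation between flanking doses. Not reached: highest tested concentration assigned. GI50: concentration for 50% inhibition of growth. TGI denotes the concentration required for complete inhibition of growth.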

Assays:
Assay in all cases: growth of human tumour cells (NCI), 48 h
NCI-H460 lung = tested on: NCI-H460 lung
UACC-62 melanoma = tested on: UACC-62 melanoma
OVCAR-3 ovarian = tested on: OVCAR-3 ovarian
HCT-15 colon = tested on: HCT-15 colon
M14 melanoma = tested on: M14 melanoma
SK-MEL-5 melanoma = tested on: SK-MEL-5 melanoma
HCC-2998 colon = tested on: HCC-2998 colon
UACC-257 melanoma = tested on: UACC-257 melanoma
RXF 393 renal = tested on: RXF 393 renal
MDA-MB-435 = tested on: MDA-MB-435

With CCCCCCCCCCCCCCCC(=O)OCC1OC(n2cc(F)c(=O)[nH]c2=O)C(NC(=O)OCc2ccccc2)C(O)C1O (centres undefined) as the compound, how does the TGI (NCI-H460 lung) read?
Its TGI is 38.9 µM.

And the TGI (UACC-62 melanoma)?
The TGI was 35.3 µM.

What about the TGI (OVCAR-3 ovarian) of the same compound?
The TGI was 33.8 µM.

What about the TGI (HCT-15 colon) of the same compound?
Its TGI is 34.4 µM.

What about the TGI (M14 melanoma) of the same compound?
The TGI was 33.1 µM.

What about the TGI (SK-MEL-5 melanoma) of the same compound?
Its TGI is 36.1 µM.

What about the TGI (HCC-2998 colon) of the same compound?
Its TGI is 31.9 µM.

For CS(=O)(=O)OCCN1CCN(C(=O)c2ccc(Cl)c3c(Nc4ccc(S(=O)(=O)N=C(N)N)cc4)c4ccccc4nc23)CC1, which TGI (NCI-H460 lung) is on record?
The TGI was over 100 µM.

What about the TGI (UACC-62 melanoma) of the same compound?
The TGI was over 100 µM.

And the TGI (OVCAR-3 ovarian)?
The TGI was over 100 µM.

And the TGI (HCT-15 colon)?
The TGI was over 100 µM.

And the TGI (UACC-257 melanoma)?
Its TGI is over 100 µM.

What about the TGI (M14 melanoma) of the same compound?
The TGI was over 100 µM.

And the TGI (RXF 393 renal)?
Its TGI is over 100 µM.

What about the TGI (SK-MEL-5 melanoma) of the same compound?
Its TGI is over 100 µM.

And the TGI (HCC-2998 colon)?
Its TGI is over 100 µM.

For O=C1C=CC2(CCC23C=CC(=O)O3)O1 (centres undefined), which TGI (NCI-H460 lung) is on record?
Its TGI is over 100 µM.

What about the TGI (UACC-62 melanoma) of the same compound?
Its TGI is over 100 µM.

And the TGI (OVCAR-3 ovarian)?
Its TGI is over 100 µM.

What about the TGI (HCT-15 colon) of the same compound?
Its TGI is over 100 µM.

And the TGI (UACC-257 melanoma)?
Its TGI is over 100 µM.

What about the TGI (M14 melanoma) of the same compound?
Its TGI is over 100 µM.

And the TGI (RXF 393 renal)?
The TGI was over 100 µM.

And the TGI (HCC-2998 colon)?
Its TGI is over 100 µM.

Which TGI (NCI-H460 lung) does the source give for C#Cc1cccc(NC(=O)/C=C\C(=O)O)c1 here?
The TGI was over 100 µM.

And the TGI (UACC-62 melanoma)?
The TGI was over 100 µM.

What about the TGI (UACC-257 melanoma) of the same compound?
Its TGI is over 100 µM.

And the TGI (SK-MEL-5 melanoma)?
The TGI was over 100 µM.

Which results are given for CC(C)c1ccc(Cc2ccc(C(C)C)c(NC(=O)C(=O)Cc3cnc4ccccc4n3)c2C(C)C)c(C(C)C)c1NC(=O)C(=O)Cc1cnc2ccccc2n1?
TGI (NCI-H460 lung): > 100 µM; TGI (UACC-62 melanoma): > 100 µM; TGI (OVCAR-3 ovarian): > 100 µM; TGI (HCT-15 colon): > 100 µM; TGI (UACC-257 melanoma): > 100 µM; TGI (M14 melanoma): > 100 µM; TGI (SK-MEL-5 melanoma): > 100 µM; TGI (HCC-2998 colon): > 100 µM

Which results are given for CCOC(=O)c1cn(C)c2c(OC)c3ccccc3c(OC)c2c1=O?
GI50 (NCI-H460 lung): 32.1 µM; TGI (NCI-H460 lung): > 100 µM; GI50 (UACC-62 melanoma): 19.5 µM; TGI (UACC-62 melanoma): 36.4 µM; GI50 (OVCAR-3 ovarian): 5.62 µM; TGI (OVCAR-3 ovarian): 25.7 µM; GI50 (HCT-15 colon): 29.6 µM; TGI (HCT-15 colon): > 100 µM; GI50 (UACC-257 melanoma): 16.6 µM; TGI (UACC-257 melanoma): 40.6 µM; GI50 (M14 melanoma): 19.8 µM; TGI (M14 melanoma): 45 µM; GI50 (MDA-MB-435): 15.9 µM; TGI (MDA-MB-435): 30 µM

COc1ccc(N(CC(=O)O)N=O)cc1 was tested. Which TGI (NCI-H460 lung) did it give?
Its TGI is over 100 µM.

What about the TGI (UACC-62 melanoma) of the same compound?
Its TGI is over 100 µM.

What about the TGI (OVCAR-3 ovarian) of the same compound?
Its TGI is over 100 µM.

And the TGI (HCT-15 colon)?
Its TGI is over 100 µM.

What about the TGI (UACC-257 melanoma) of the same compound?
The TGI was over 100 µM.

And the TGI (M14 melanoma)?
Its TGI is over 100 µM.

What about the TGI (RXF 393 renal) of the same compound?
Its TGI is over 100 µM.

What about the TGI (MDA-MB-435) of the same compound?
The TGI was over 100 µM.

And the TGI (SK-MEL-5 melanoma)?
Its TGI is over 100 µM.

What does the source list for C=C1C(=O)O[C@@H]2C[C@@]3(C)[C@H](O)CCC(=C)[C@@H]3C[C@H]12?
TGI (NCI-H460 lung): 19.7 µM; TGI (UACC-62 melanoma): 19 µM; TGI (OVCAR-3 ovarian): 21.4 µM; TGI (HCT-15 colon): 35.1 µM; TGI (SK-MEL-5 melanoma): 16.8 µM; TGI (HCC-2998 colon): 23.8 µM

CCOC(=O)C1=C(C)N(NC(N)=O)C2(N)N(NC(N)=O)C(C)=C(C(=O)OCC)C12C#N (centres undefined) was tested. Which TGI (NCI-H460 lung) did it give?
Its TGI is over 100 µM.

What about the TGI (UACC-62 melanoma) of the same compound?
Its TGI is over 100 µM.

And the TGI (OVCAR-3 ovarian)?
Its TGI is over 100 µM.

What about the TGI (HCT-15 colon) of the same compound?
The TGI was over 100 µM.

And the TGI (UACC-257 melanoma)?
The TGI was over 100 µM.

And the TGI (M14 melanoma)?
The TGI was over 100 µM.

What about the TGI (SK-MEL-5 melanoma) of the same compound?
Its TGI is over 100 µM.

And the TGI (HCC-2998 colon)?
Its TGI is over 100 µM.

For CCOC(=O)C[C@@]12CCCN[C@]1(C)CCc1ccccc12, which TGI (NCI-H460 lung) is on record?
Its TGI is over 100 µM.

What about the TGI (UACC-62 melanoma) of the same compound?
Its TGI is over 100 µM.

And the TGI (OVCAR-3 ovarian)?
Its TGI is over 100 µM.

What about the TGI (HCT-15 colon) of the same compound?
The TGI was over 100 µM.

And the TGI (M14 melanoma)?
The TGI was over 100 µM.

What about the TGI (RXF 393 renal) of the same compound?
Its TGI is over 100 µM.

What about the TGI (SK-MEL-5 melanoma) of the same compound?
Its TGI is over 100 µM.

What about the TGI (HCC-2998 colon) of the same compound?
The TGI was over 100 µM.

What does the source list for CC(C)(C)C1=NO[C@H]2[C@@H](NC(=O)c3ccccc3)CC[C@@H]12?
TGI (NCI-H460 lung): > 100 µM; TGI (UACC-62 melanoma): > 100 µM; TGI (OVCAR-3 ovarian): > 100 µM; TGI (HCT-15 colon): > 100 µM; TGI (UACC-257 melanoma): > 100 µM; TGI (M14 melanoma): > 100 µM; TGI (RXF 393 renal): > 100 µM; TGI (SK-MEL-5 melanoma): > 100 µM; TGI (HCC-2998 colon): > 100 µM

N#CC(C(=O)Nc1ccccc1)C1=C(Cl)C(=O)c2ccccc2C1=O (centres undefined) was tested. Which TGI (NCI-H460 lung) did it give?
Its TGI is over 100 µM.

What about the TGI (UACC-62 melanoma) of the same compound?
The TGI was 33.3 µM.

What about the TGI (OVCAR-3 ovarian) of the same compound?
Its TGI is 34.5 µM.

What about the TGI (HCT-15 colon) of the same compound?
The TGI was 32.6 µM.

And the TGI (UACC-257 melanoma)?
Its TGI is 12.8 µM.

What about the TGI (M14 melanoma) of the same compound?
The TGI was 30.3 µM.

What about the TGI (RXF 393 renal) of the same compound?
Its TGI is 31.4 µM.

What about the TGI (SK-MEL-5 melanoma) of the same compound?
Its TGI is 30.2 µM.

And the TGI (HCC-2998 colon)?
The TGI was 45.9 µM.
